The values that follow come from publication PMC3833278, “De Novo Design of Protein Kinase Inhibitors by in Silico Identification of Hinge Region-Binding Fragments” (ACS Chemical Biology, 2013).

Type in all cases: biochemical
For one assay, the target named is T1, MKK1 (Homo sapiens, UniProt Q02750).
T1 construct: MRC Protein Phosphorylation Unit, University of Dundee (screening panel)
The assay can be described thus: Kinase panel screen at 100 μM, radioactive filter-binding assay. As to the method: (§1) A subset of library compounds was tested against a panel of 117 protein kinases as proof of concept study (Figure 4). The compounds were chosen to cover all six core fragments and to be fragment-sized (MW < 300 Da), therefore having a higher probability of inhibiting a kinase compared to more elaborated library compounds with the potential draw-back of having only moderate binding affinity.[25] […] According to these definitions, all assayed compounds were at least moderately active against at least one kinase (Figure 5a).
(§2) Selected compounds were screened against a panel of mammalian kinases routinely run in the MRC Protein Phosphorylation Unit at the University of Dundee (www.kinase-screen.mrc.ac.uk).[21] Compounds were supplied in DMSO and screened in duplicates at 100 μM concentration using a radioactive (^33P-ATP) filter-binding-assay. For hit validation and all subsequent IC50 determinations, selected compounds were solubilized in DMSO at a top concentration of 51 mM and serially diluted to achieve 10-point titration of final assay concentrations from 1 mM to 30 nM. All IC50 determination assays were done in duplicate and the IC50 values were calculated using Prism (GraphPad Software, Inc.). All biochemical assays were run below the Km^app for the ATP for each enzyme allowing comparison of inhibition across the panel.

The test system of assay [1] is panel of 117 protein kinases. Described as above. Conditions: for number of kinases inhibited with >40% inhibition: panel of 117 kinases; for number of kinases of the docking panel for which activity was found: only kinases in the docking panel. As to the method:
as §1, §2

Another assay addresses T2, CHK2 (Homo sapiens, UniProt O96017).
T2 construct: MRC Protein Phosphorylation Unit, University of Dundee (screening panel)
Nature of the assay: Radioactive (33P-ATP) filter-binding kinase assay, IC50. How it is done: as §2

Another assay addresses T3, GCK (Homo sapiens, UniProt Q12851).
T3 construct: MRC Protein Phosphorylation Unit, University of Dundee (screening panel)
The description is as above. How it is done: as §2

A further assay addresses T4, HER4 (Homo sapiens, UniProt Q15303).
T4 construct: MRC Protein Phosphorylation Unit, University of Dundee (screening panel)
The assay is described as above. How it is done: as §2

The target in another assay is T5, IGF-1R (Homo sapiens, UniProt P08069).
T5 construct: MRC Protein Phosphorylation Unit, University of Dundee (screening panel)
The description is as above. How it is done:
as §2

The target in another assay is T6, Src (Homo sapiens, UniProt P12931).
T6 construct: MRC Protein Phosphorylation Unit, University of Dundee (screening panel)
Described as above. How it is done:
as §2

The target of a further assay is T7, TAK1 (Homo sapiens, UniProt O43318).
T7 construct: MRC Protein Phosphorylation Unit, University of Dundee (screening panel)
Described as above. How it is done:
as §2

The target in a further assay is T8, YES1 (Homo sapiens, UniProt P07947).
T8 construct: MRC Protein Phosphorylation Unit, University of Dundee (screening panel)
The description is as above. How it is done: as §2

In another assay the target is VEG-FR (Homo sapiens, UniProt P35968). Described as above.
In another assay the target is T9, Aurora A (Homo sapiens, UniProt O14965).
T9 construct: MRC Protein Phosphorylation Unit, University of Dundee (screening panel)
The assay is described as above. As to the method:
as §2

The next assay has as its target T10, CK2 (Homo sapiens, UniProt P68400).
T10 construct: MRC Protein Phosphorylation Unit, University of Dundee (screening panel)
The assay is described as above. How it is done:
as §2

In a further assay the target is T11, FGF-R1 (Homo sapiens, UniProt P11362).
T11 construct: MRC Protein Phosphorylation Unit, University of Dundee (screening panel)
The assay is described as above. As to the method: as §2

The next assay addresses CDK2 (Homo sapiens, UniProt P24941). The assay is described as above.
In the next assay the target is CLK2 (Homo sapiens, UniProt P49760). The description is as above.
For another assay, the target named is T12, SGK1 (Homo sapiens, UniProt O00141).
T12 construct: MRC Protein Phosphorylation Unit, University of Dundee (screening panel)
Described as above. As to the method: as §2

In the next assay the target is GSK-3β (Homo sapiens, UniProt P49841). Described as above.
Another assay concerns the target T13, MSK1 (Homo sapiens, UniProt O75582).
T13 construct: MRC Protein Phosphorylation Unit, University of Dundee (screening panel)
Nature of the assay: Kinase panel screen at 100 μM, radioactive filter-binding assay. How it is done: as §1, §2

A further assay has as its target T14, EPH-B3 (Homo sapiens, UniProt P54753).
T14 construct: MRC Protein Phosphorylation Unit, University of Dundee (screening panel)
The assay can be described thus: Radioactive (33P-ATP) filter-binding kinase assay, IC50. As to the method:
as §2

The next assay has as its target T15, PIM1 (Homo sapiens, UniProt P11309).
T15 construct: MRC Protein Phosphorylation Unit, University of Dundee (screening panel)
Described as above. As to the method:
as §2

The target in the next assay is T16, PIM3 (Homo sapiens, UniProt Q86V86).
T16 construct: MRC Protein Phosphorylation Unit, University of Dundee (screening panel)
The description is as above. As to the method:
as §2

The target of another assay is T17, MAPKAP-K3 (Homo sapiens, UniProt Q16644).
T17 construct: MRC Protein Phosphorylation Unit, University of Dundee (screening panel)
Described as above. As to the method:
as §2

The target in another assay is T18, RSK2 (Homo sapiens, UniProt P51812).
T18 construct: MRC Protein Phosphorylation Unit, University of Dundee (screening panel)
Described as above. How it is done:
as §2

The target in a further assay is T19, SRPK1 (Homo sapiens, UniProt Q96SB4).
T19 construct: MRC Protein Phosphorylation Unit, University of Dundee (screening panel)
The description is as above.

T10 sequence (P68400 whole entry): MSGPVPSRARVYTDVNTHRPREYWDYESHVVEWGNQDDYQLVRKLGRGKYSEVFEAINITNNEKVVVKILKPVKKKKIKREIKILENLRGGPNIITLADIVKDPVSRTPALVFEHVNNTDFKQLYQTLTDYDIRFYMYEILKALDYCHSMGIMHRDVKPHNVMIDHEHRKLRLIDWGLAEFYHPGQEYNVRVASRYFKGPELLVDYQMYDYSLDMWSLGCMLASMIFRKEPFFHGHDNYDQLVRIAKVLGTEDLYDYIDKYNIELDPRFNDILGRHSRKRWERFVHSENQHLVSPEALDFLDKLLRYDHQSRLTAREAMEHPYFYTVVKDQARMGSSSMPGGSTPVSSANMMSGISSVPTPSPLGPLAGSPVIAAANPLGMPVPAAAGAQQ
T11 sequence (P11362 22-822, species assumed): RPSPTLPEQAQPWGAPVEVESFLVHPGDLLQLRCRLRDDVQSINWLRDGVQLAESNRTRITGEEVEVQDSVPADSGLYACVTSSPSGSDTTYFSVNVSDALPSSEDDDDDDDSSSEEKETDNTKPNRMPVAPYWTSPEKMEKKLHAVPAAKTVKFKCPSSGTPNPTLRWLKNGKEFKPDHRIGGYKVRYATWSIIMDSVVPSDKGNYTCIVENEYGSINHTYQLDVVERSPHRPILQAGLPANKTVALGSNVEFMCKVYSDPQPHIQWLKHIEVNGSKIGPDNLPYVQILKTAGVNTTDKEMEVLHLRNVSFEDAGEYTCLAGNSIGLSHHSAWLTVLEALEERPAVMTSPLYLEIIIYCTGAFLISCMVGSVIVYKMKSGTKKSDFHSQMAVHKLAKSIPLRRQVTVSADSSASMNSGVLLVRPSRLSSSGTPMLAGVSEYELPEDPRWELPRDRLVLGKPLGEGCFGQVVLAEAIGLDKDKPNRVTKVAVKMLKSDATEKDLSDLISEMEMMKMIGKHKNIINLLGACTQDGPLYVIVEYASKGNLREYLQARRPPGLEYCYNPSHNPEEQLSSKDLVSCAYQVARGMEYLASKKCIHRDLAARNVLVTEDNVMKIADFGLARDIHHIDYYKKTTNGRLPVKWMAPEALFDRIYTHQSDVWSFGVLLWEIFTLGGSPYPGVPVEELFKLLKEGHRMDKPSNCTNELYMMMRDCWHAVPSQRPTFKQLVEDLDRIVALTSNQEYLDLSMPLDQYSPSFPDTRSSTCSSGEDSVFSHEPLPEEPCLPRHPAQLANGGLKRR
T7 sequence (O43318 1-303 limits assumed): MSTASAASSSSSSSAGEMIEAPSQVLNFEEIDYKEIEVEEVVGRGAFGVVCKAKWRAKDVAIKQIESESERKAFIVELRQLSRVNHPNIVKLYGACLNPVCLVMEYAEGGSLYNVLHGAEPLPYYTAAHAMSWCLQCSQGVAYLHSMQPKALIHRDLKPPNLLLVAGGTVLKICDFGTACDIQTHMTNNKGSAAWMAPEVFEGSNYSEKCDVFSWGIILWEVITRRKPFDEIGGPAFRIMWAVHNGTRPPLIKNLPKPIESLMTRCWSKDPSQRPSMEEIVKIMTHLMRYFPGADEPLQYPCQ
T6 sequence (P12931 whole entry, species assumed): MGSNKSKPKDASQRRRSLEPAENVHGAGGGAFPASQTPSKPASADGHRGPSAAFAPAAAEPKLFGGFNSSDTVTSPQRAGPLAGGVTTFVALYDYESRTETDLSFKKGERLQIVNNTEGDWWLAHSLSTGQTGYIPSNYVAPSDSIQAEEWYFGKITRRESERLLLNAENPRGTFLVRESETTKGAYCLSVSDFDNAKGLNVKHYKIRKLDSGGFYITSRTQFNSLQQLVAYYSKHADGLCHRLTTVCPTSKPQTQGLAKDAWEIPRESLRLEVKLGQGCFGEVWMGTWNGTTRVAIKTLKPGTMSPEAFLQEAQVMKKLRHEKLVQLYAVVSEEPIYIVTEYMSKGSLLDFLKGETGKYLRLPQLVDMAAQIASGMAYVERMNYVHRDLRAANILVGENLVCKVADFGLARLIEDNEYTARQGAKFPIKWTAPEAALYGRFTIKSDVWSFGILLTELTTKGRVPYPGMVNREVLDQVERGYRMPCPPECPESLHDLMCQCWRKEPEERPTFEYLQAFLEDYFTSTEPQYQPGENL
T5 sequence (P08069 31-1367, species assumed): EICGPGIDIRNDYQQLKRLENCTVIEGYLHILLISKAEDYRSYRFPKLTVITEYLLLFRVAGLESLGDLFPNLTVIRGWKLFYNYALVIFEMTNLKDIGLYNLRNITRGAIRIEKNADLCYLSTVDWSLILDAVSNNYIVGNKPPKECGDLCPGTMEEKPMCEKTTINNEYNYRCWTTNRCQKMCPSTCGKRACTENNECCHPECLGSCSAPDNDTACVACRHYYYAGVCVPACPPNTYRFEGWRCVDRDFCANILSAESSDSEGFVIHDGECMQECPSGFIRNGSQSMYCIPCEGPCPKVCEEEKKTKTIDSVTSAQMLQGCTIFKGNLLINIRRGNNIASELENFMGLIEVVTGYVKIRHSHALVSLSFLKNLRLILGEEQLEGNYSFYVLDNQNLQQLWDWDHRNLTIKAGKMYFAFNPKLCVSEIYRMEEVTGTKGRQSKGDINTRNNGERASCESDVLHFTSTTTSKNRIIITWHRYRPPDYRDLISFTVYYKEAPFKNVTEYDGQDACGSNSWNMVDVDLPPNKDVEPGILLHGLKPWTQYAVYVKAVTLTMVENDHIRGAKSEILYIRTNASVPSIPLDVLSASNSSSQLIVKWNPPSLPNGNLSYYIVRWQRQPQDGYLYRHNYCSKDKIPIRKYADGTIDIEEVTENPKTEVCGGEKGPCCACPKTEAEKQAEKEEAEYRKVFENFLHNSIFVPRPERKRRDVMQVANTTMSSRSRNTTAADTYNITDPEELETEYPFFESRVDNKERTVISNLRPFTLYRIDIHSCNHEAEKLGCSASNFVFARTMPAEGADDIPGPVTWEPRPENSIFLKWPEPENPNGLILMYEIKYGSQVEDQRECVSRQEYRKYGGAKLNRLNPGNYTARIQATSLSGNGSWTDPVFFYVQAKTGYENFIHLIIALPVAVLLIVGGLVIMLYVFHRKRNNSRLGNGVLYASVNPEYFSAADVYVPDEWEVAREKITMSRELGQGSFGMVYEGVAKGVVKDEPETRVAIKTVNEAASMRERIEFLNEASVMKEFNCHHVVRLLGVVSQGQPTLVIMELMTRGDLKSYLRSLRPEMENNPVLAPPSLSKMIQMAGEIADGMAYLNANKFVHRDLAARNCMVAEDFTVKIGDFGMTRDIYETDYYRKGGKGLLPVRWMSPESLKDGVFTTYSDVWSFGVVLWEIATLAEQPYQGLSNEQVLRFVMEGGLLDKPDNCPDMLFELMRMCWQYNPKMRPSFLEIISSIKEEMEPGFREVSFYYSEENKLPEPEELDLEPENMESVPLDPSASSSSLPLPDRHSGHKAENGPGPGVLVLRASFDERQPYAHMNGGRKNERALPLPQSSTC
T3 sequence (Q12851 whole entry): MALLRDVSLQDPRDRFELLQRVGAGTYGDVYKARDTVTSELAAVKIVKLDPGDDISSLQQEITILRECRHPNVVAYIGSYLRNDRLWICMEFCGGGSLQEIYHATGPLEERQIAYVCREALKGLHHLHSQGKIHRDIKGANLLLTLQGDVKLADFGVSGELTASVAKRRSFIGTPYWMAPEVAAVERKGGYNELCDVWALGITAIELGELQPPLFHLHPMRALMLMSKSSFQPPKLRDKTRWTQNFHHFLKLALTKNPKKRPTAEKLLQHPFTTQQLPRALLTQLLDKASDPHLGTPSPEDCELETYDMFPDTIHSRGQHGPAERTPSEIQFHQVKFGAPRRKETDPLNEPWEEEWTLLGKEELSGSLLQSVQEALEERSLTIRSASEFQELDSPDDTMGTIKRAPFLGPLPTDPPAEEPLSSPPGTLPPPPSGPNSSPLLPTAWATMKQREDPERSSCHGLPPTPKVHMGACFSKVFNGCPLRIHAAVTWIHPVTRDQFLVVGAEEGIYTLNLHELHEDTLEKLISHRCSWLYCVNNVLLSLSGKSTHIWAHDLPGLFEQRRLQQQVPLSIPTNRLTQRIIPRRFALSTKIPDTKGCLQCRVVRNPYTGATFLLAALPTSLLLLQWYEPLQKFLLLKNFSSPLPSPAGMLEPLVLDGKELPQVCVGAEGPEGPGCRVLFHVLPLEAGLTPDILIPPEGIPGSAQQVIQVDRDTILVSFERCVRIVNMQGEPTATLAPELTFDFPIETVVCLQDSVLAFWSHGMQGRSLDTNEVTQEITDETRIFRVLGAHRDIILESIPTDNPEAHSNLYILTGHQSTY
GSK-3β, sequence (P49841 whole entry, species assumed): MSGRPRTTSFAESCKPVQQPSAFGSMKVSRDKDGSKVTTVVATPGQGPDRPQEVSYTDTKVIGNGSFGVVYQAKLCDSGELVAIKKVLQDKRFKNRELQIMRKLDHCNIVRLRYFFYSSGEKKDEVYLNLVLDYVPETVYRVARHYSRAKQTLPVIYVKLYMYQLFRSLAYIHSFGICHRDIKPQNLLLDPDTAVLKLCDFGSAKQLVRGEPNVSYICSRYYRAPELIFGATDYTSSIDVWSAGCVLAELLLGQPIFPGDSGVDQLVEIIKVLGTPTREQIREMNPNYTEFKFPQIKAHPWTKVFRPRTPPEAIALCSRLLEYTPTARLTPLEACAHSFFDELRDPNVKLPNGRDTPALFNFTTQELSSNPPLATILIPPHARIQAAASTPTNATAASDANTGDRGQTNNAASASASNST
T17 sequence (Q16644 whole entry, species assumed): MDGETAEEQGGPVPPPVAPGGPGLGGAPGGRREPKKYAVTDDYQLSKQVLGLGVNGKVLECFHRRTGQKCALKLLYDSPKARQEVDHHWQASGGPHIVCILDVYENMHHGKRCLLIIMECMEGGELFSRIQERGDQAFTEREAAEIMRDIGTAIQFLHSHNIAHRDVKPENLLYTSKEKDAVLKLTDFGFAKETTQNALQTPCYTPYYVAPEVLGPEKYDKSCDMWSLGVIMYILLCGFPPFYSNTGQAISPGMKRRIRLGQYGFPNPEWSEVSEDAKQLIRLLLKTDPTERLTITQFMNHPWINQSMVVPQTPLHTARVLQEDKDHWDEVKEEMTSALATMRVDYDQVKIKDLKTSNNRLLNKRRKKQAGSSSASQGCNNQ

Take `O=c1c(NC(=S)NCc2ccccc2)cnc2[nH]ccn12` [F2]: the inhibition at 100 µM on MKK1 was more than 40%. Also, the “number of kinases inhibited with >40% inhibition” value (“number … with >40% inhibition” for short) in assay [1] is recorded as “one”.

Consider `Nc1nc2cnc(-c3ccccc3)cn2n1` [B1], for which the LE at CHK2 turned out to be 0.42 kcal/mol heavy atom; on GCK, 0.46 kcal/mol heavy atom; at HER4 it was 0.41 kcal/mol heavy atom; on IGF-1R it was 0.40 kcal/mol heavy atom; at Src, 0.41 kcal/mol heavy atom; on TAK1, 0.43 kcal/mol heavy atom. Besides, the LE at YES1 turned out to be 0.41 kcal/mol heavy atom; on VEG-FR, 0.39 kcal/mol heavy atom. The “number of kinases of the docking panel for which activity was found” value in assay [1] was determined as 31. Also, the “number … with >40% inhibition” value in assay [1] was 63.

On to `Nc1cnc2c(-c3c(F)cccc3F)cccn2c1=O` [A2], for which the LE on Aurora A worked out at 0.26 kcal/mol heavy atom; at CK2, 0.27 kcal/mol heavy atom; on FGF-R1, 0.25 kcal/mol heavy atom; at GCK it was 0.38 kcal/mol heavy atom; at IGF-1R, 0.30 kcal/mol heavy atom; at TAK1 it was 0.32 kcal/mol heavy atom. Further, the LE at CDK2 is 0.33 kcal/mol heavy atom; on CLK2 it was 0.32 kcal/mol heavy atom. For the same compound, the “number … with >40% inhibition” value in assay [1] came to 55.

For the compound `COc1ccc(-c2cc3c(=O)[nH]cnc3s2)cc1OC` [C2], the LE was 0.28 kcal/mol heavy atom on SGK1 and 0.32 kcal/mol heavy atom on GSK-3β.

With `O=C(Nc1cnc2[nH]cnn2c1=O)c1ccccc1` [E1], at MSK1, the inhibition at 100 µM is more than 40%. Moreover, the “number … with >40% inhibition” value in assay [1] was “one”.

As to `CC(=O)Nc1nc2cnc(-c3c(C)cccc3C)cn2n1` [B4], the “number of kinases of the docking panel for which activity was found” value in assay [1] was “did not inhibit any kinase in the docking panel”.

For the compound `CC(C)(C)Nc1c(C2CC2)nc2[nH]cnn12` [D1], the LE on EPH-B3 was determined as 0.33 kcal/mol heavy atom; on FGF-R1, 0.29 kcal/mol heavy atom.

Regarding `O=c1cc(-c2ccccc2F)nc2[nH]ccn12` [F3], the figures for the LE at PIM1 and on PIM3 were 0.38 kcal/mol heavy atom and 0.40 kcal/mol heavy atom, respectively.

In the case of `CC1CN(c2nc3ccccn3c(=O)c2N)CC(C)O1` (centres unmarked) [A1], the LE at CK2 was found to be 0.33 kcal/mol heavy atom; on MAPKAP-K3, 0.33 kcal/mol heavy atom; at RSK2 it was 0.26 kcal/mol heavy atom; at Src, 0.28 kcal/mol heavy atom; at SRPK1 it was 0.28 kcal/mol heavy atom.

Usually inhibition stands for the percentage by which the read-out fell short of the control.
